Laboratory results: the supplement of paper PMC10307832

Columns and labels:
Assay in all cases: relative viability (nuclei count vs DMSO), 5 days (fraction); higher = more cells survive
[1] = compound: CS(=O)(=O)c1ccc(-c2cnc(N)c(C(=O)Nc3ccccc3)n2)cc1 [VE-821] + O=C(c1cc(Cc2n[nH]c(=O)c3ccccc23)ccc1F)N1CCN(C(=O)C2CC2)CC1 [Olaparib] (partner 8 µM)
Summary of the method: (§1)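 Dosing by pin tool came one day after lung cancer cell lines were seeded in 1536-well plates, using either one drug or a fixed anchor-drug dose plus five library-drug doses (not always all listed) in √10 steps. After 5 days, nuclei were counted on 4× images. Relative viability is treated-well nuclei count divided by vehicle-well nuclei count, and values are medians of duplicate plates.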

[2] = compound: CS(=O)(=O)c1ccc(-c2cnc(N)c(C(=O)Nc3ccccc3)n2)cc1 [VE-821] + C[C@]1(O)C[C@@H](c2nc(-c3ccc4ccc(-c5ccccc5)nc4c3)c3c(N)nccn32)C1 [Linsitinib] (partner 1 µM)
Summary of the method: as §1

[3] = compound: CS(=O)(=O)c1ccc(C(=O)Nc2ccc(Cl)c(-c3ccccn3)c2)c(Cl)c1 [Vismodegib] + Cc1nc(Nc2ncc(C(=O)Nc3c(C)cccc3Cl)s2)cc(N2CCN(CCO)CC2)n1 [Dasatinib] (partner 0.075 µM)
Summary of the method: as §1

[4] = compound: CS(=O)(=O)c1ccc(C(=O)Nc2ccc(Cl)c(-c3ccccn3)c2)c(Cl)c1 [Vismodegib] + Cc1nc(NC(=O)N2CCC[C@H]2C(N)=O)sc1-c1ccnc(C(C)(C)C(F)(F)F)c1 [Alpelisib] (partner 2 µM)
Summary of the method: as §1

| Cell Line | relative viability ([1]; first compound 0.08 µM) | relative viability ([1]; first compound 0.253 µM) | relative viability ([1]; first compound 0.8 µM) | relative viability ([1]; first compound 2.53 µM) | relative viability ([1]; first compound 8 µM) | relative viability ([2]; first compound 0.08 µM) | relative viability ([2]; first compound 0.253 µM) | relative viability ([2]; first compound 0.8 µM) | relative viability ([2]; first compound 2.53 µM) | relative viability ([2]; first compound 8 µM) | relative viability ([3]; first compound 0.08 µM) | relative viability ([3]; first compound 0.253 µM) | relative viability ([3]; first compound 0.8 µM) | relative viability ([3]; first compound 2.53 µM) | relative viability ([3]; first compound 8 µM) | relative viability ([4]; first compound 0.08 µM) | relative viability ([4]; first compound 0.253 µM) | relative viability ([4]; first compound 0.8 µM) | relative viability ([4]; first compound 2.53 µM) | relative viability ([4]; first compound 8 µM) |
| --- | --- | --- | --- | --- | --- | --- | --- | --- | --- | --- | --- | --- | --- | --- | --- | --- | --- | --- | --- | --- |
| SK-MES-1 | 0.885 | 0.747 | 0.638 | 0.531 | 0.243 | 1.04 | 1.05 | 1.02 | 1.02 | 0.983 | 0.401 | 0.313 | 0.407 | 0.413 | 0.429 | 0.851 | 0.956 | 0.802 | 0.827 | 0.837 |
| HCC-827 | 0.735 | 0.753 | 0.136 | 0.734 | 0.711 | 0.932 | 1.01 | 0.909 | 0.934 | 0.976 | 0.361 | 0.263 | 0.297 | 0.268 | 0.293 | 0.982 | 0.993 | 0.972 | 0.998 | 0.949 |
| NCI-H596 | 0.701 | 0.714 | 0.545 | 0.555 | 0.527 | 1.1 | 1.18 | 1.03 | 1.15 | 0.94 | 0.568 | 0.566 | 0.585 | 0.625 | 0.556 | 0.438 | 0.448 | 0.51 | 0.472 | 0.545 |
| COR-L23 | 0.372 | 0.346 | 0.221 | 0.304 | 0.182 | 0.958 | 0.897 | 1.16 | 0.964 | 0.719 | 0.507 | 0.455 | 0.543 | 0.452 | 0.533 | 0.77 | 0.672 | 0.689 | 0.756 | 0.819 |
| 201T | 0.859 | 0.819 | 0.826 | 0.748 | 0.623 | 0.975 | 0.941 | 0.956 | 0.968 | 0.818 | 0.646 | 0.52 | 0.481 | 0.569 | 0.463 | 1.03 | 0.996 | 0.994 | 1.07 | 0.984 |
| HCC-44 | 0.939 | 0.978 | 0.971 | 0.986 | 0.957 | 0.72 | 0.685 | 0.485 | 0.81 | 0.769 |  |  |  |  |  | 0.787 | 0.771 | 0.717 | 0.799 | 0.818 |
| NCI-H2170 | 0.656 | 0.487 | 0.395 | 0.276 | 0.21 |  |  |  |  |  | 0.542 | 0.623 | 0.627 | 0.62 | 0.639 | 0.836 | 0.814 | 0.872 | 0.836 | 0.794 |
| NCI-H1623 |  |  |  |  |  |  |  |  |  |  | 0.48 | 0.565 | 0.557 | 0.51 | 0.462 |  |  |  |  |  |
| NCI-H1563 |  |  |  |  |  | 1.26 | 1.17 | 0.914 | 1.08 | 1.05 | 0.455 | 0.443 | 0.477 | 0.495 | 0.454 | 0.896 | 0.88 | 1.01 | 0.889 | 1.02 |
| SW 900 | 0.936 | 0.941 | 0.768 | 0.786 | 0.606 |  |  |  |  |  | 0.669 | 0.543 | 0.585 | 0.763 | 0.536 |  |  |  |  |  |
| NCI-H1703 | 0.417 | 0.506 | 0.416 | 0.462 | 0.437 | 1.42 | 0.51 | 0.649 | 0.93 | 0.629 |  |  |  |  |  | 0.315 | 0.311 | 0.407 | 0.306 | 0.422 |
| ChaGo-K-1 | 0.449 | 0.396 | 0.36 | 0.345 | 0.283 |  |  |  |  |  | 0.718 | 0.672 | 0.622 | 0.583 | 0.632 |  |  |  |  |  |
| EBC-1 | 0.75 | 0.774 | 0.74 | 0.562 | 0.416 | 0.908 | 0.901 | 0.85 | 1.16 | 0.808 |  |  |  |  |  | 0.838 | 0.891 | 0.876 | 0.789 | 0.891 |
| NCI-H2342 | 0.474 | 0.469 | 0.379 | 0.521 | 0.431 |  |  |  |  |  | 0.313 | 0.316 | 0.298 | 0.344 | 0.322 |  |  |  |  |  |
| NCI-H1299 | 1.04 | 1.01 | 1.07 | 0.896 | 0.527 | 0.946 | 0.886 | 0.928 | 1.06 | 0.959 |  |  |  |  |  | 0.984 | 1.04 | 1.06 | 0.973 | 1.04 |
| Calu-6 | 0.626 | 0.597 | 0.566 | 0.386 | 0.226 | 1 | 0.839 | 0.83 | 1.13 | 0.942 |  |  |  |  |  | 0.97 | 0.976 | 0.901 | 1.09 | 0.979 |
| IA-LM | 0.852 | 0.734 | 0.832 | 0.801 | 0.36 | 0.836 | 0.54 | 0.741 | 0.903 | 0.636 |  |  |  |  |  | 0.778 | 0.728 | 0.966 | 0.582 | 1.04 |
| NCI-H1650 | 0.686 | 0.83 | 0.542 | 0.796 | 0.429 |  |  |  |  |  | 0.276 | 0.347 | 0.339 | 0.258 | 0.291 |  |  |  |  |  |
| NCI-H1648 | 1.14 |  | 0.909 | 0.922 | 0.468 |  |  |  |  |  |  |  |  |  |  |  |  |  |  |  |
| NCI-H522 | 0.627 | 0.698 | 0.645 | 0.657 | 0.594 |  |  |  |  |  | 0.915 | 0.888 | 0.883 | 0.793 | 0.879 |  |  |  |  |  |
| A549 | 0.431 | 0.291 | 0.195 | 0.262 | 0.207 | 0.623 | 0.597 | 0.43 | 0.599 | 0.406 |  |  |  |  |  | 0.658 | 0.673 | 0.73 | 0.734 | 0.69 |
